Assay: Study HDP-CDV-201: safety and tolerability (adverse events, laboratory abnormalities, discontinuations)
Format: in vivo, human (adult allogeneic HSCT recipients)
Conditions: for ALT, subject 4090 / AST, subject 4090 / Alk Phos, subject 4090 / Bilirubin, subject 4090: 100 BIW
Description: Clinical Studies of HDP-CDV were performed and described in detail in the following Examples. For example, HDP-CDV-201 is a placebo-controlled, dose-escalating trial in HSCT CMV (R+) recipients, evaluating the ability of HDP-CDV to prevent or control CMV infection was carried out. Five cohorts were established in which participants or subjects received either placebo or the HDP-CDV orally, in doses ranging from 40 mg weekly (QW) to 200 mg twice weekly (BIW). Subjects who were post-HSCT were enrolled at the time of engraftment and randomized to HDP-CDV or placebo (3 to 1 ratio) and received blinded therapy until approximately 100 day post-transplantation. HDP-CDV doses were 40 mg QW, 100 mg QW, 200 mg QW, 200 mg BIW and 100 mg BIW. Escalation to the next dose was decided by the data monitoring committee after review of the safety data from the previous Cohort. Subjects who developed CMV disease or CMV infection requiring pre-emptive therapy with local standard of care were discontinued from blinded therapy and followed for 4 weeks. Subjects who completed treatment with blinded therapy were followed for 8 weeks post-therapy.
Data from Study HDP-CDV-201 also provided characterization of the safety and tolerability profile of HDP-CDV when administered for the prevention or control of CMV infection in high risk (R^+) post-HSCT adult subjects.
The Safety population (SAFETY) included all randomized subjects who took at least one dose of study treatment. This population was used to summarize safety outcomes based on the treatment actually received, in cases where a subject was treated contrary to the randomization schedule.
The safety and tolerability profile of HDP-CDV, including subject demographics and Baseline characteristics; the AE profile; and laboratory abnormalities of interest were analyzed in the cohorts followed in this investigation.
Subjects completing the treatment period received a full course of study medication; those completing the entire study attended visits through 8 weeks of follow up. Subjects who discontinued treatment may have done so for protocol specified reasons (e.g. development of clinically significant CMV infection requiring preemptive treatment with excluded anti-CMV medications) or for other reasons (e.g., withdrawal, adverse events, loss to follow-up). The disposition of subjects in Study HDP-CDV-201 during the double-blind, placebo-controlled treatment period (through Week 11) is listed by dosing Cohort in TABLE 23.
Adverse events were examined by severity to ensure that all safety signals were identified in this study population. Because of the frequency of events in HSCT recipients, particular attention was given to evaluation of Grade 3 […], 4 (severe), and 5 (fatal) adverse events.
Only those preferred terms for which at least one Grade 3 or higher event was experienced in any treatment group are listed. Cytomegalovirus-related AEs are excluded from this analysis.
HDP-CDV is a lipid conjugate of CDV. Because CDV is known to have adverse effects on renal function and bone marrow, decreased GFR and persistent neutropenia were identified as AEs of special interest. Key renal and hematological (TABLE 30) laboratory parameters were measured and listed below by Study HDP-CDV-201 treatment groups. TABLE 30 includes abnormal levels of serum creatinine, neutrophils, platelets, WBCs, and hemoglobin and includes data at Screening and during the treatment period.
A common metric for unit based dosing of medications is by weight (mg/kg). When the distribution of weights was examined for all subjects participating in the study, the median was 78 kg and the lower 25th percentile weight was approximately 65 kg, which translates to a cut-off of ˜3 mg/kg for a 200 mg total weekly dose. Based upon this approach, a cut-off of 3 mg/kg was used to assess the frequency of diarrhea and associated GI AEs reported for the subjects in Cohorts 3 or 4a (TABLE 40).

SMILES: CCCCCCCCCCCCCCCCOCCCOP(=O)(O)COC(CO)Cn1ccc(N)nc1=O (stereo not drawn) [HDP-CDV]
- TEAE LFT Abnormal, Grade 4 (200 mg QW): 0
- TEAE LFT Abnormal, Grade 5 (200 mg QW): 0
- TEAE Leukocytosis, Frequency (200 mg QW): 2 (5.1%)
- TEAE Leukocytosis, Grade 2 (200 mg QW): 0
- TEAE Leukocytosis, Grade 3 (200 mg QW): 0
- TEAE Leukocytosis, Grade 4 (200 mg QW): 0
- TEAE Leukocytosis, Grade 5 (200 mg QW): 0
- TEAE Nausea, Frequency (200 mg QW): 11 (28.2%)
- TEAE Nausea, Grade 2 (200 mg QW): 4 (10.3%)
- TEAE Nausea, Grade 3 (200 mg QW): 1 (2.6%)
- TEAE Nausea, Grade 4 (200 mg QW): 0
- TEAE Nausea, Grade 5 (200 mg QW): 0
- TEAE Neutropenia, Frequency (200 mg QW): 4 (10.3%)
- TEAE Neutropenia, Grade 2 (200 mg QW): 1 (2.6%)
- TEAE Neutropenia, Grade 3 (200 mg QW): 3 (7.7%)
- TEAE Neutropenia, Grade 4 (200 mg QW): 0
- TEAE Neutropenia, Grade 5 (200 mg QW): 0
- TEAE Pneumonia, Frequency (200 mg QW): 0
- TEAE Pneumonia, Grade 2 (200 mg QW): 0
- TEAE Pneumonia, Grade 3 (200 mg QW): 0
- TEAE Pneumonia, Grade 4 (200 mg QW): 0
- TEAE Pneumonia, Grade 5 (200 mg QW): 0
- TEAE Pyrexia, Frequency (200 mg QW): 7 (17.9%)
- TEAE Pyrexia, Grade 2 (200 mg QW): 2 (5.1%)
- TEAE Pyrexia, Grade 3 (200 mg QW): 2 (5.1%)
- TEAE Pyrexia, Grade 4 (200 mg QW): 0
- TEAE Pyrexia, Grade 5 (200 mg QW): 0
- TEAE Renal Failure, Frequency (200 mg QW): 0
- TEAE Renal Failure, Grade 2 (200 mg QW): 0
- TEAE Renal Failure, Grade 3 (200 mg QW): 0
- TEAE Renal Failure, Grade 4 (200 mg QW): 0
- TEAE Renal Failure, Grade 5 (200 mg QW): 0
- TEAE Staphylococcal Bacteremia, Frequency (200 mg QW): 1 (2.6%)
- TEAE Staphylococcal Bacteremia, Grade 2 (200 mg QW): 0
- TEAE Staphylococcal Bacteremia, Grade 3 (200 mg QW): 1 (2.6%)
- TEAE Staphylococcal Bacteremia, Grade 4 (200 mg QW): 0
- TEAE Staphylococcal Bacteremia, Grade 5 (200 mg QW): 0
- TEAE Thrombocytopenia, Frequency (200 mg QW): 0
- TEAE Thrombocytopenia, Grade 2 (200 mg QW): 0
- TEAE Thrombocytopenia, Grade 3 (200 mg QW): 0
- TEAE Thrombocytopenia, Grade 4 (200 mg QW): 0
- TEAE Thrombocytopenia, Grade 5 (200 mg QW): 0
- TEAE Vomiting, Frequency (200 mg QW): 6 (15.4%)
- TEAE Vomiting, Grade 2 (200 mg QW): 1 (2.6%)
- TEAE Vomiting, Grade 3 (200 mg QW): 1 (2.6%)
- TEAE Vomiting, Grade 4 (200 mg QW): 0
- TEAE Vomiting, Grade 5 (200 mg QW): 0
- subjects requiring treatment with steroids during the study (200 mg QW): 59%
- proportion of subjects with Grade 3 or higher ALT (200 mg QW (6 of 39)): 15.8%
- subjects who discontinued study medications (200 mg QW, fasted state): 54%
- Subjects Reporting Diarrhea as an AE (200 mg QW, n = 39): 13 (33.3%)
- Discontinuation: Death (200 mg QW, active treatment period): 3 (7.7%) Subject n (%)
- Discontinuation: Adverse event (200 mg QW, active treatment period through Week 11): 7 (17.9%) Subject n (%)
- subjects reporting SAEs involving the gastrointestinal tract (400 mg per week, given as 200 mg BIW): 63%
- ALT, subject 4090 (Treatment Wk 8): 445 U/L
- AST, subject 4090 (Treatment Wk 8): 195 U/L
- Alk Phos, subject 4090 (Treatment Wk 8): Normal
- Bilirubin, subject 4090 (Treatment Wk 8): 44 µmol/L
- ALT, subject 4090 (Treatment Wk 10): 792 U/L
- AST, subject 4090 (Treatment Wk 10): 312 U/L
- Alk Phos, subject 4090 (Treatment Wk 10): Normal
- Bilirubin, subject 4090 (Treatment Wk 10): Normal
- ALT, subject 4008 (200 BIW, Posttreatment Wk 1): 137 U/L
- AST, subject 4008 (200 BIW, Posttreatment Wk 1): Normal
- Bilirubin, subject 4008 (200 BIW, Posttreatment Wk 1): 48 µmol/L
- Alk Phos, subject 4008 (200 BIW, Posttreatment Wk 1, Previously elevated): 117 U/L
- ALT, subject 3001 (200 QW, Post Treatment Wk 1): 375 U/L
- AST, subject 3001 (200 QW, Post Treatment Wk 1): 164 U/L
- Bilirubin, subject 3001 (200 QW, Post Treatment Wk 1): 89 µmol/L
- Alk Phos, subject 3001 (200 QW, Post Treatment Wk 1, elevated): 337 U/L
- ALT, subject 3044 (200 QW, Post Treatment Wk 4): 227 U/L
- AST, subject 3044 (200 QW, Post Treatment Wk 4): Normal
- Bilirubin, subject 3044 (200 QW, Post Treatment Wk 4): 50 µmol/L
- Alk Phos, subject 3044 (200 QW, Post Treatment Wk 4, Previously elevated): 174 U/L
- Grade of hepatobiliary AE symptomatic gallstones, subject 1016 (Cohort 1): 3
- Grade of hepatobiliary AE worsening hyperbilirubinemia, subject 1003 (Cohort 1): 4
- Outcome of hepatobiliary AE symptomatic gallstones, subject 1016 (Cohort 1): recovered/resolved
- Outcome of hepatobiliary AE worsening hyperbilirubinemia, subject 1003 (Cohort 1): not recovered/not
- Relationship of hepatobiliary AE symptomatic gallstones, subject 1016 (Cohort 1): not related
- Relationship of hepatobiliary AE worsening hyperbilirubinemia, subject 1003 (Cohort 1): not related
- subjects discontinued due to neutropenia (Cohort 1): 0 subject(s)
- ALT (Screening) >3 × ULN-5 × ULN, subjects (Cohort 1, 40 mg QW): 0
- ALT (Screening) >5 × ULN-10 × ULN, subjects (Cohort 1, 40 mg QW): 0
- ALT (Screening) >10 × ULN-20 × ULN, subjects (Cohort 1, 40 mg QW): 0
- ALT (Screening) >20 × ULN, subjects (Cohort 1, 40 mg QW): 0
- ALT (any time during therapy) >3 × ULN-5 × ULN, subjects (Cohort 1, 40 mg QW): 2 (8.7%)
- ALT (any time during therapy) >5 × ULN-10 × ULN, subjects (Cohort 1, 40 mg QW): 1 (4.3%)
- ALT (any time during therapy) >10 × ULN-20 × ULN, subjects (Cohort 1, 40 mg QW): 0
- ALT (any time during therapy) >20 × ULN, subjects (Cohort 1, 40 mg QW): 0
- AST (Screening) >3 × ULN-5 × ULN, subjects (Cohort 1, 40 mg QW): 0
- AST (Screening) >5 × ULN-10 × ULN, subjects (Cohort 1, 40 mg QW): 0
- AST (Screening) >10 × ULN-20 × ULN, subjects (Cohort 1, 40 mg QW): 0
- AST (Screening) >20 × ULN, subjects (Cohort 1, 40 mg QW): 0
- AST (any time during therapy) >3 × ULN-5 × ULN, subjects (Cohort 1, 40 mg QW): 1 (4.3%)
- AST (any time during therapy) >5 × ULN-10 × ULN, subjects (Cohort 1, 40 mg QW): 0
- AST (any time during therapy) >10 × ULN-20 × ULN, subjects (Cohort 1, 40 mg QW): 0
- AST (any time during therapy) >20 × ULN, subjects (Cohort 1, 40 mg QW): 0
- Alkaline Phosphatase (Screening) >2.5-5.0 × ULN, subjects (Cohort 1, 40 mg QW): 0
- Alkaline Phosphatase (Screening) >5.0-20.0 × ULN, subjects (Cohort 1, 40 mg QW): 0
- Alkaline Phosphatase (Screening) >20.0 × ULN, subjects (Cohort 1, 40 mg QW): 0
- Alkaline Phosphatase (Screening) >ULN-[…] ULN, subjects (Cohort 1, 40 mg QW): 6 (24.0%)
- Alkaline Phosphatase (any time during therapy) >2.5-5.0 × ULN, subjects (Cohort 1, 40 mg QW): 0
- Alkaline Phosphatase (any time during therapy) >5.0-20.0 × ULN, subjects (Cohort 1, 40 mg QW): 0
- Alkaline Phosphatase (any time during therapy) >20.0 × ULN, subjects (Cohort 1, 40 mg QW): 0
- Alkaline Phosphatase (any time during therapy) >ULN-[…] ULN, subjects (Cohort 1, 40 mg QW): 6 (26.1%)
- GI AE Leading to Study Drug Discontinuation: Abdominal pain, subjects (Cohort 1, 40 mg QW): 0
- GI AE Leading to Study Drug Discontinuation: Diarrhoea, subjects (Cohort 1, 40 mg QW): 0
- GI AE Leading to Study Drug Discontinuation: Dyspepsia, subjects (Cohort 1, 40 mg QW): 0
- GI AE Leading to Study Drug Discontinuation: Nausea, subjects (Cohort 1, 40 mg QW): 0
- GI AE Leading to Study Drug Discontinuation: Vomiting, subjects (Cohort 1, 40 mg QW): 0
- GI AEs Leading to Study Drug Discontinuation: Total subjects discontinued (Cohort 1, 40 mg QW): 0
